Measured values: ChEMBL document CHEMBL1124186, “Synthesis and evaluation of tylosin-related macrolides modified at the aldehyde function: a new series of orally effective antibiotics” (1988)
In brackets after ≈: the same amount, converted by molar mass.

Legend:
Bacteroides fragilis [1] = assay: In vitro antimicrobial activity against anaerobic bacteria bacteroides fragilis 111; type: functional
Bacteroides fragilis [2] = assay: In vitro antimicrobial activity against anaerobic bacteria bacteroides fragilis 1877; type: functional
Bacteroides fragilis [3] = assay: In vitro antimicrobial activity against anaerobic bacteria bacteroides fragilis 1936B,; type: functional
Eikenella corrodens = assay: In vitro antimicrobial activity against anaerobic bacteria bacteroides corrodens 1874; type: functional
Phocaeicola vulgatus = assay: In vitro antimicrobial activity against anaerobic bacteria bacteroides vulgatus 1211; type: functional
[4] = test system: Prevotella melaninogenica; assay: In vitro antimicrobial activity against anaerobic bacteria bacteroides melaninogenicus 1856,; type: functional
[5] = test system: Bacteroides thetaiotaomicron; assay: In vitro antimicrobial activity against anaerobic bacteria bacteroides thetaiotaomicron 1438; type: functional
Clostridioides difficile = assay: In vitro antimicrobial activity against anaerobic bacteria Clostridium difficile 2994; type: functional
Clostridium perfringens = assay: In vitro antimicrobial activity against anaerobic bacteria clostridium perfringens 81,; type: functional
Clostridium septicum = assay: In vitro antimicrobial activity against anaerobic bacteria clostridium septicum 1128; type: functional
Chlamydia trachomatis = assay: In vitro antimicrobial activity against chlamydia trachomatis.; type: functional
Fusobacterium = assay: In vitro antimicrobial activity against anaerobic bacteria fusobacterium symbiosum 1470; type: functional
Haemophilus influenzae [6] = assay: In vitro antimicrobial activity against aerobic bacteria Haemophilus influenzae 76; type: functional
Haemophilus influenzae [7] = assay: In vitro antimicrobial activity against aerobic bacteria Haemophilus influenzae MX366,; type: functional
Haemophilus influenzae [8] = assay: In vitro antimicrobial activity against Haemophilus influenzae.; type: functional
[9] = test system: Haemophilus parainfluenzae; assay: In vitro antimicrobial activity against aerobic bacteria Haemophilus parainfluenzae 9796; type: functional
[10] = In vitro antimicrobial activity against anaerobic bacteria peptostreptococcus intermedius 1264; type: functional
[11] = test system: Peptoniphilus asaccharolyticus; assay: In vitro antimicrobial activity against anaerobic bacteria peptococcus asaccharolyticus 1302; type: functional
Anaerococcus prevotii = assay: In vitro antimicrobial activity against anaerobic bacteria peptococcus prevoti 1281; type: functional
Cutibacterium acnes = assay: In vitro antimicrobial activity against anaerobic bacteria propionibacterium acnes 79; type: functional
Streptococcus [12] = assay: In vitro antimicrobial activity against aerobic bacteria Streptococcus B 14; type: functional
Streptococcus [13] = assay: In vitro antimicrobial activity against aerobic bacteria Streptococcus D 8043; type: functional
Streptococcus [14] = assay: In vitro antimicrobial activity against aerobic bacteria Streptococcus D 9960; type: functional
[15] = test system: Staphylococcus epidermidis; assay: In vitro antimicrobial activity against aerobic bacteria Streptococcus epi 270; type: functional
Staphylococcus aureus [16] = assay: In vitro antimicrobial activity against Staphylococcus aureus X1; type: functional
Staphylococcus aureus [17] = assay: In vitro antimicrobial activity against aerobic bacteria Staphylococcus aureus 513E; type: functional
Staphylococcus aureus [18] = assay: In vitro antimicrobial activity against aerobic bacteria Staphylococcus aureus V140,; type: functional
Staphylococcus aureus [19] = assay: In vitro antimicrobial activity against aerobic bacteria Staphylococcus aureus V41; type: functional
Staphylococcus aureus [20] = assay: In vitro antimicrobial activity against aerobic bacteria Staphylococcus aureus X400; type: functional
Streptococcus pneumoniae [21] = assay: In vivo effective dose against experimental infections in mice Streptococcus pneumoniae park when administered orally; type: functional; conditions: po
Streptococcus pneumoniae [22] = assay: In vivo effective dose against experimental infections in mice Streptococcus pneumoniae park when administered sc; type: functional
Streptococcus pneumoniae [23] = assay: In vitro antimicrobial activity against aerobic bacteria Streptococcus pneumoniae B1-438; type: functional, streptococcus pneum
Streptococcus pyogenes [24] = assay: In vivo effective dose against experimental infections in rodent caused by Streptococcus pyogenes C203 when administered sc; type: functional
Streptococcus pneumoniae [25] = assay: In vitro antimicrobial activity against Streptococcus pneumoniae; type: functional
[26] = test system: Staphylococcus epidermidis; assay: In vitro antimicrobial activity against Staphylococcus epidermidis EPI1; type: functional
[27] = test system: Staphylococcus epidermidis; assay: In vitro antimicrobial activity against aerobic bacteria Streptococcus epi 222; type: functional
Enterococcus faecium = assay: In vitro antimicrobial activity against Streptococcus faecium X66; type: functional, streptococcus fae-cium
Streptococcus pyogenes [28] = assay: In vitro antimicrobial activity against Streptococcus pyogenes C203; type: functional
Streptococcus [29] = assay: In vitro antimicrobial activity against aerobic bacteria Streptococcus B 5; type: functional
Staphylococcus aureus [30] = assay: In vitro antimicrobial activity against aerobic bacteria Staphylococcus aureus V135; type: functional
Haemophilus influenzae [31] = assay: In vitro antimicrobial activity against aerobic bacteria Haemophilus influenzae 465; type: functional
[32] = test system: Prevotella melaninogenica; assay: In vitro antimicrobial activity against anaerobic bacteria bacteroides melaninogenicus 2736; type: functional
[33] = test system: Fusobacterium necrophorum; assay: In vitro antimicrobial activity against anaerobic bacteria usobacterium necrophorum 6054A; type: functional
Collinsella aerofaciens = assay: In vitro antimicrobial activity against anaerobic bacteria eubacterium aerofaciens 1235; type: functional
Streptococcus [34] = assay: In vitro antimicrobial activity against aerobic bacteria Streptococcus D 2041; type: functional
[35] = test system: Peptostreptococcus anaerobius; assay: In vitro antimicrobial activity against anaerobic bacteria eubacterium peptostreptococcus anaerobius 1428,; type: functional
Streptococcus pyogenes [36] = assay: In vivo effective dose against experimental infections in rodent caused by Streptococcus pyogenes C203 when administered orally; type: functional; conditions: po

CC[C@H]1OC(=O)C[C@@H](O)[C@H](C)[C@@H](O[C@@H]2O[C@H](C)[C@@H](O)[C@H](N(C)C)[C@H]2O)[C@@H](CCOc2ccc(-c3ccccc3)cc2)C[C@@H](C)C(=O)/C=C/C(C)=C/[C@@H]1CO[C@@H]1O[C@H](C)[C@@H](O)[C@@H](OC)[C@H]1OC
MIC (Bacteroides fragilis [1]): 4 µg/mL (≈ 4.32 µM) | MIC (Bacteroides fragilis [2]): 2 µg/mL (≈ 2.16 µM) | MIC (Bacteroides fragilis [3]): 4 µg/mL (≈ 4.32 µM) | MIC (Eikenella corrodens): 2 µg/mL (≈ 2.16 µM) | MIC (Phocaeicola vulgatus): < 0.5 µg/mL | MIC [4]: < 0.5 µg/mL | MIC [5]: 2 µg/mL (≈ 2.16 µM) | MIC (Clostridioides difficile): < 0.5 µg/mL | MIC (Clostridium perfringens): < 0.5 µg/mL | MIC (Clostridium septicum): < 0.5 µg/mL | MIC (Chlamydia trachomatis): > 2 µg/mL | MIC (Fusobacterium): 2 µg/mL (≈ 2.16 µM) | MIC (Haemophilus influenzae [6]): 16 µg/mL (≈ 17.3 µM) | MIC (Haemophilus influenzae [7]): 16 µg/mL (≈ 17.3 µM) | MIC (Haemophilus influenzae [8]): 16 µg/mL (≈ 17.3 µM) | MIC [9]: 32 µg/mL (≈ 34.6 µM) | MIC [10]: < 0.5 µg/mL | MIC [11]: < 0.5 µg/mL | MIC (Anaerococcus prevotii): 1 µg/mL (≈ 1.08 µM) | MIC (Cutibacterium acnes): < 0.5 µg/mL | MIC (Streptococcus [12]): 1 µg/mL (≈ 1.08 µM) | MIC (Streptococcus [13]): 0.25 µg/mL (≈ 0.27 µM) | MIC (Streptococcus [14]): 0.5 µg/mL (≈ 0.54 µM) | MIC [15]: 128 µg/mL (≈ 138 µM) | MIC (Staphylococcus aureus [16]): 0.5 µg/mL (≈ 0.54 µM) | MIC (Staphylococcus aureus [17]): 0.25 µg/mL (≈ 0.27 µM) | MIC (Staphylococcus aureus [18]): 0.25 µg/mL (≈ 0.27 µM) | MIC (Staphylococcus aureus [19]): 0.25 µg/mL (≈ 0.27 µM) | MIC (Staphylococcus aureus [20]): 0.25 µg/mL (≈ 0.27 µM) | ED50 (Streptococcus pneumoniae [21]): 37 mg/kg | ED50 (Streptococcus pneumoniae [22]): > 20 mg/kg | MIC (Streptococcus pneumoniae [23]): 32 µg/mL (≈ 34.6 µM) | ED50 (Streptococcus pyogenes [24]): > 10 mg/kg | MIC (Streptococcus pneumoniae [25]): 0.25 µg/mL (≈ 0.27 µM) | MIC [26]: 0.5 µg/mL (≈ 0.54 µM) | MIC [27]: 0.12 µg/mL (≈ 0.13 µM) | MIC (Enterococcus faecium): 0.5 µg/mL (≈ 0.54 µM) | MIC (Streptococcus pyogenes [28]): 0.25 µg/mL (≈ 0.27 µM) | MIC (Streptococcus [29]): 2 µg/mL (≈ 2.16 µM) | MIC (Staphylococcus aureus [30]): 0.25 µg/mL (≈ 0.27 µM) | MIC (Haemophilus influenzae [31]): 16 µg/mL (≈ 17.3 µM) | MIC [32]: < 0.5 µg/mL | MIC [33]: 4 µg/mL (≈ 4.32 µM) | MIC (Collinsella aerofaciens): < 0.5 µg/mL | MIC (Streptococcus [34]): 0.5 µg/mL (≈ 0.54 µM) | MIC [35]: < 0.5 µg/mL | ED50 (Streptococcus pyogenes [36]): 25 mg/kg

CC[C@H]1OC(=O)C[C@@H](O)[C@H](C)[C@@H](O[C@@H]2O[C@H](C)[C@@H](O)[C@H](N(C)C)[C@H]2O)[C@@H](CCOc2cccc(Oc3ccccc3)c2)C[C@@H](C)C(=O)/C=C/C(C)=C/[C@@H]1CO[C@@H]1O[C@H](C)[C@@H](O)[C@@H](OC)[C@H]1OC
MIC (Haemophilus influenzae [8]): 16 µg/mL (≈ 17 µM) | MIC (Staphylococcus aureus [16]): 0.5 µg/mL (≈ 0.531 µM) | ED50 (Streptococcus pneumoniae [21]): 46 mg/kg | ED50 (Streptococcus pneumoniae [22]): > 20 mg/kg | ED50 (Streptococcus pyogenes [24]): > 10 mg/kg | MIC (Streptococcus pneumoniae [25]): 0.25 µg/mL (≈ 0.265 µM) | MIC [26]: 0.5 µg/mL (≈ 0.531 µM) | MIC (Enterococcus faecium): 0.5 µg/mL (≈ 0.531 µM) | MIC (Streptococcus pyogenes [28]): 0.25 µg/mL (≈ 0.265 µM) | ED50 (Streptococcus pyogenes [36]): 35 mg/kg
